Like-named read-outs stand apart in the source and are kept apart here. Each block holds one compound with its values, some of them ahead of it.
Legend:
[1] = molecular target: CDK4/CyclinD1 (Homo sapiens (Human), UniProt P11802); test: CDK4/CyclinD1 kinase assay (Nanosyn, Caliper microfluidic); format: biochemical; conditions: read-out: CDK4/CycD1 IC50
[2] = tested on: H69 (human small cell lung cancer - Rb-negative) cells; test: Cellular proliferation assay (CellTiter-Glo), H69; format: cell-based; conditions: NCI-H69, 96 h, four days
Protocol: (§1) Cellular proliferation assays were conducted using the following Rb-negative cancer cell lines: H69 (human small cell lung cancer—Rb-negative) cells or A2058 (human metastatic melanoma cells—Rb-negative). These cells were seeded in Costar (Tewksbury, Mass.) 3093 96 well tissue culture treated white walled/clear bottom plates. Cells were treated with the compounds of Table 1 as nine point dose response dilution series from 10 uM to 1 nM. Cells were exposed to compounds and then cell viability was determined after either four (H69) or six (A2058) days as indicated using the CellTiter-Glo® luminescent cell viability assay (CTG; Promega, Madison, Wis., United States of America) following the manufacturer's recommendations. Plates were read on BioTek (Winooski, Vt.) Syngergy2 multi-mode plate reader. The Relative Light Units (RLU) were plotted as a result of variable molar concentration and data was analyzed using Graphpad (LaJolla, Calif.) Prism 5 statistical software to determine the EC50 for each compound.

[3] = molecular target: CDK2/CyclinA (Homo sapiens (Human), UniProt P24941); test: CDK2/CyclinA kinase assay (Nanosyn, Caliper microfluidic); format: biochemical; conditions: for IC50: read-out: CDK2/CycA IC50
How it was run: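 Phosphorylation was read by Caliper microfluidic detection. Compounds ran as 12-point dose-responses in singlicate, with staurosporine as reference.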

[4] = tested on: HS68 cells (human skin fibroblast cell line (Rb-positive)); test: G1 arrest (cellular G1 and S-phase) assay; format: cell-based; conditions: Homo sapiens, Hs68, HS68 cells
Protocol: For determination of cellular fractions in various stages of the cell cycle following various treatments, HS68 cells (human skin fibroblast cell line (Rb-positive)) were stained with propidium iodide staining solution and run on Dako Cyan Flow Cytometer. The fraction of cells in G0-G1 DNA cell cycle versus the fraction in S-phase DNA cell cycle was determined using FlowJo 7.2 0.2 analysis.
The compounds listed in Table 1 were tested for their ability to arrest HS68 cells at the G1 phase of the cell cycle.

[5] = tested on: A2058 (human metastatic melanoma cells - Rb-negative); test: Cellular proliferation assay (CellTiter-Glo), A2058; format: cell-based; conditions: A2058, 144 h, six days
Protocol: as §1

[6] = molecular target: CDK2/CyclinE (Homo sapiens (Human), UniProt P24941); test: CDK2/CyclinE kinase assay (Nanosyn, Caliper microfluidic); format: biochemical; conditions: for IC50: read-out: CDK2/CycE IC50
[7] = molecular target: CDK6/CyclinD3 (Homo sapiens (Human), UniProt Q00534); test: CDK6/CyclinD3 kinase assay (Nanosyn, Caliper microfluidic); format: biochemical; conditions: Table 3; read-out: CDK6/CycD3 IC50
Chain of CDK6/CyclinD3 (Q00534 whole entry, species assumed): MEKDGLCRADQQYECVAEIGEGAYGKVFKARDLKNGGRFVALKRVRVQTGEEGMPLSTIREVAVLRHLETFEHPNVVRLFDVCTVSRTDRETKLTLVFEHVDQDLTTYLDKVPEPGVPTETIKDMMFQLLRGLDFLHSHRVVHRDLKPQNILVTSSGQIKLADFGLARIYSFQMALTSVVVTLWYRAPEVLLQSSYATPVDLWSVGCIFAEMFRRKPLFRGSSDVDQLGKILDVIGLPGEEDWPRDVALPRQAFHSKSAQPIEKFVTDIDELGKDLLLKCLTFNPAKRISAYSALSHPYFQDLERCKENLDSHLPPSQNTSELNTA
Chain of CDK6/CyclinD3 (P30281 whole entry partner, species assumed): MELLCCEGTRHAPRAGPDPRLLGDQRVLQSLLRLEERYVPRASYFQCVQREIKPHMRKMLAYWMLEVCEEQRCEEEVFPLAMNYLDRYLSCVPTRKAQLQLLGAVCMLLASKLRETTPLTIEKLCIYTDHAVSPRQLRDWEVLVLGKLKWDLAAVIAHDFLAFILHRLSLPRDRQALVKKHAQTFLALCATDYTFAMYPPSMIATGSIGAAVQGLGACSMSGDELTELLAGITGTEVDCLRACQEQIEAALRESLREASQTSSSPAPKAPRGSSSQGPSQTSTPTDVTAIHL

[8] = tested on: RB-intact, Cdk4/6-dependent cell line (WM2664 or tHS68); test: EdU proliferation, RB-intact Cdk4/6-dependent cell line; conditions: 24 hours
[9] = Mouse pharmacokinetics (oral gavage / intravenous); format: in vivo, mice; conditions: mouse
[10] = tested on: HSPCs (bone marrow); test: HSPC proliferation in bone marrow by EdU incorporation after oral gavage; format: in vivo, mice
Protocol: Mice were then sacrificed at the indicated times (0, 12, 24, 36, or 48 hours following compound administration), and bone marrow was harvested (n=3 mice per time point), as previously described (Johnson et al. J. Clin. Invest. (2010) 120(7), 2528-2536). Four hours before the bone marrow was harvested, mice were treated with 100 μg of EdU by intraperitoneal injection (Invitrogen). Bone marrow mononuclear cells were harvested and immunophenotyped using previously described methods and percent EdU positive cells were then determined (Johnson et al. J. Clin. Invest. (2010) 120(7), 2528-2536). In brief, HSPCs were identified by expression of lineage markers (Lin-), Sca1 (S+), and c-Kit (K+).
Four hours before animals were sacrificed and the bone marrow was harvested, mice were treated with 100 μg of EdU by intraperitoneal injection. Three mice per group were sacrificed at 12 hours and the remaining three animals per group were sacrificed at 24 hours. Results are shown in FIG. 6A as the ratio of EdU positive cells for treated animals at 12 or 24 hour time points compared to control.
Further experiments were completed with Compound T examining dose response and longer periods of compound treatment. […] […].
Both compounds were administered at 150 mg/kg by oral gavage. One hour prior to harvesting bone marrow, EdU was IP injected to label cycling cells. Bone marrow was harvested at 12, 24, 36, and 48 hours after compound treatment and the percentage of EdU positive HSPC cells was determined at each time point.

[11] = tested on: RB-negative SCLC cell lines (H69, H82, H209, H345, NCI417, or SHP-77); test: EdU proliferation, RB-negative SCLC cell lines; conditions: 24 hours
[12] = tested on: bone marrow progenitors; test: Carboplatin-induced cytotoxicity in bone marrow (EdU); format: in vivo, FVB/n mice; conditions: 150 mg/kg oral gavage plus 90 mg/kg carboplatin i.p., 24 hours
Protocol: To assess the effect of transient CDK4/6 inhibition by Compound GG on carboplatin-induced cytotoxicity in the bone marrow, FVB/n mice (n=3 per group) were treated with vehicle control, 90 mg/kg carboplatin by intraperitoneal injection, or 150 mg/kg Compound GG by oral gavage plus 90 mg/kg carboplatin by intraperitoneal injection. 24 hours after treatment bone marrow was harvested and the percent of cycling bone marrow progenitors was measured by EdU incorporation as explained earlier. […] EdU incorporation in control animals was normalized to 100% and compared to EdU incorporation for bone marrow from carboplatin treated animals or carboplatin and Compound GG treated animals.

Chain of CDK4/CyclinD1 (P11802 whole entry, species assumed): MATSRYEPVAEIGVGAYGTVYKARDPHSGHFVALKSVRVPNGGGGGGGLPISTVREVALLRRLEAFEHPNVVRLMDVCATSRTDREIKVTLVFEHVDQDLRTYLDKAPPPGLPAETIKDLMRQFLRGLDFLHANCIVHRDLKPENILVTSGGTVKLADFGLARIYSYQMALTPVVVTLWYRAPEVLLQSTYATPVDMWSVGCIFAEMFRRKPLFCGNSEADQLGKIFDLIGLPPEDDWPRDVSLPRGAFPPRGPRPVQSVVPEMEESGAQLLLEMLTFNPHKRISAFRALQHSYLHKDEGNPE
Chain of CDK4/CyclinD1 (P24385 whole entry partner, species assumed): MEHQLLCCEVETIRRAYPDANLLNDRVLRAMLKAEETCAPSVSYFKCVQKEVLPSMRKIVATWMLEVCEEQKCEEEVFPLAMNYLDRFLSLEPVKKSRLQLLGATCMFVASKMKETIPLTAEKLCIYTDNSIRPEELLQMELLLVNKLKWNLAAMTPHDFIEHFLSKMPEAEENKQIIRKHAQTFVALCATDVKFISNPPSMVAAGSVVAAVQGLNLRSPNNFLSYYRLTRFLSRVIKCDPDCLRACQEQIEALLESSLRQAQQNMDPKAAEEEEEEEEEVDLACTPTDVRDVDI

- IC50 ([1]; Table 2): 2.8 nM
- EC50 [2]: > 3000 nM
- Fold Selectivity (CDK2/CycA/CDK4) ([3]; Table 2): 31
- IC50 ([3]; Table 2): 85 nM
- EC50 [5]: > 3000 nM
- Fold Selectivity (CDK2/CycE/CDK4) ([6]; Table 2): 68
- IC50 ([6]; Table 2): 187 nM
SMILES: CN1CCN(C(=O)c2ccc(Nc3ncc4cc5n(c4n3)C3(CCCC3)CNC5=O)nc2)CC1 [BBB]
- EC50 [4]: 230 nM

SMILES: CC(C)N1CCN(c2ccc(Nc3ncc4cc5n(c4n3)C3(CCCCC3)CNC5=O)nc2)CC1 [Compound GG, 2′-((5-(4-isopropylpiperazin-1-yl)pyridin-2-yl)amino)-7′,8′-dihydro-6′H-spiro[cyclohexane-1,9′-pyrazino[1′,2′:1,5]pyrrolo[2,3-d]pyrimidin]-6′-one]
- IC50 ([1]; Table 2): 1 nM
- IC50 ([1]; Table 3): 1.06 nM
- IC50 [7]: 4.7 nM
- Fold Selectivity (CDK2/CycA/CDK4) ([3]; Table 2): 1425
- IC50 ([3]; Table 2): 1510 nM
- IC50 ([3]; Table 3): 1510 nM
- effect on proliferation (EdU, percent of cells in S-phase) [8]: inhibits the Rb-positive cell line (tHS68)
- F [9]: 52%
- half-life ([9]; plasma, po, 30 mg/kg, 30 mg/kg oral gavage, read-out: t1/2 p.o. (converted)): 3.5 h
- half-life ([9]; plasma, po, 30 mg/kg, read-out: plasma half-life following oral administration): 3 to 5 h
- bioavailability ([9]; plasma, po, 30 mg/kg, read-out: oral bioavailability (F (%))): 52 to 80%
- AUC(0-inf) ([9]; plasma, iv, 10 mg/kg i.v.): 1.1 µM·h
- clearance ([9]; plasma, iv, 10 mg/kg i.v.): 82 mL/min/kg
- Vd ([9]; plasma, iv, 10 mg/kg i.v., read-out: Vss): 7.5 L/kg
- AUC ([9]; plasma, 30 mg/kg oral gavage): 1.9 µM·h
- Cmax ([9]; plasma, 30 mg/kg oral gavage): 1900 nM
- Tmax ([9]; plasma, 30 mg/kg oral gavage): 1 h
- Fold Selectivity CDK2/CDK4 ([6]; CDK2/CycE IC50 divided by CDK4/CycD1 IC50): 3377
- Fold Selectivity (CDK2/CycE/CDK4) ([6]; Table 2): 3377
- IC50 ([6]; Table 2): 3580 nM
- IC50 ([6]; Table 3): 3580 nM
- EdU incorporation into HSPCs at 12 and 24 hours compared to control ([10]; 150 mg/kg oral gavage): reduction in EdU incorporation at 12 hours which was starting to return to normal at 24 hours
- G1-arrest of bone marrow stem cells (HSPC) ([10]; oral gavage, mice): dose dependent, transient, and reversible G1-arrest
- effect on proliferation (EdU, percent of cells in S-phase) [11]: does not affect the growth of the Rb-negative cell lines
- protection of cycling bone marrow progenitors (EdU) [12]: significant protection of bone marrow progenitors
